Data reported in patent publication US7378246B2, “Methods and compositions for regulating adipogenesis” (The Board of Trustees of the Leland Stanford Junior …, priority 2002, dated 2008).
Structures can show the parent of a compound that is named as a salt.

Tests used:
Type in all cases: cell-based
[1] = tested on: Mouse embryonic fibroblast (MEF) cells; assay: Adipocyte differentiation of MEFs, Oil Red O staining; settings: for adipogenesis of MEF cells: DM with 5 μM rosiglitazone, CoCl2 25 μM or DFO 25 μM, stained Day 6 (FIG. 1C); for adipocyte differentiation of control-treated MEF cells: control adenovirus, same conditions as cre-treated MEFs (FIG. 2); for adipocyte differentiation of HIF-1α deficient MEF cells: cre-treated MEFs, CoCl2 up to 50 μM, DFO up to 25 μM, entire course (FIG. 2)
Protocol: MEFs were induced to differentiate 2 days after confluence (day 0) with DM supplemented with 5 μM rosiglitazone (Alexander et al., 1998; Lehmann et al., 1995). The medium was replaced on Day 3 with DMEM plus 10% FBS, 1 μg/ml INS and 5 μM rosiglitazone, and was then changed every other day. To remove the HIF-1α gene, subconfluent culture of MEFs with HIF-1α alleles flanked by loxP sites were treated with adenovirus containing cre recombinase or control adenovirus at the multiplicity of infection (MOI) of 50 as previously described (Seagroves et al., 2001). The treated MEF cells were grown to confluence for 2 days before they were induced to differentiate as above.
(§1) To evaluate the effects of hypoxia on adipogenesis, cells were maintained at 20% O2 in standard incubator, 2% O2 in standard incubator or 0.01% O2 in an anaerobic chamber immediately following treatment with DM. Alternatively, CoCl2 or DFO was added to DM at indicated concentrations either during the initial stage of stimulation or for the entire course of differentiation.
(§2) For visualization of differentiated adipocytes, cells were washed with phosphate-buffered saline (PBS) and stained in 60% of the Oil Red O stock solution (0.5 g Oil Red O in 100 ml of isopropanol) for 30 min at 37° C. Cells were briefly washed in 60% isopropanol and then rinsed in distilled water for microscopic observation and photography.

PPARγ2 = PPARγ2 mRNA expression in L1 cells, Northern blotting; settings: for PPARγ2 expression in L1 cells: 50 μM CoCl2 or 100 μM DFO during induction (FIG. 3C); for PPARγ2 expression in L1 cells with ectopic expression: retroviral infection, RNA on Day 2 after IDM stimulation (FIG. 7B)
Protocol: Total cellular RNA was isolated with Trizol reagent (Life Technologies). The following plasmids were used for cDNA template preparations by restriction digest: MSV-C/EBPβ and MSV-C/EBPδ (S. L. McKnight, Univ. Texas Southwestern Medical Center, Dallas, Tex.), pSVsport-PPARγ2 (B. M. Spiegelman), pBS-Stra13 (P. Chambon, INSERM, Strasbourg, France). Hybridization was carried out at 65° C. for 6 to 12 hr. The radioactive blot was visualized on Storm 860 PhosphoImager (Molecular Dynamics, Sunnyvale, Calif.).

3T3-L1 preadipocytes = assay: Adipocyte differentiation of 3T3-L1 (L1) cells, Oil Red O staining; settings: for differentiation of C/EBPβ-expressing L1 cells: agent present for first 2 days of adipogenic induction, 50 μM CoCl2 or 100 μM DFO (FIG. 4B); for differentiation and/or fat accumulation of C/EBPβ-expressing L1 cells: continuous presence (6 days), 50 μM CoCl2 or 100 μM DFO, 20% O2 (FIG. 4B); for differentiation of PPARγ2-expressing L1 cells: stimulated by rosiglitazone, 50 μM CoCl2 or 100 μM DFO for 6 days (FIG. 4C); for adipocyte differentiation of L1 cells on retroviral overexpression: retroviral infection, vs vector control pLXSN, stained Day 5 (FIG. 7A)
Protocol: Based on previously described procedure (Wu et al., 1996), L1 cells were maintained in GM for 2 days after confluence. The confluent cells were treated (day 0) with differentiation medium (DM) containing 10% FBS, 10 μg/ml INS, 1 μM DEX and 0.5 mM MIX in DMEM for 2 days. Cells were then maintained in DMEM containing 10% FBS and 1 μg/ml INS, and the medium was replaced every other day.
as §1, §2
Retroviruses were produced using the phoenix cell system (Baker et al., 1992; Pear et al., 1993). L1 cells at 30-50% confluence were retrovirally infected 2-3 times with 8 μg/ml Polybrene by centrifugation at 1800-2000 rpm for 1 hr, followed by overnight incubation at 32° C. For generation of stable C/EBPβ-expressing cells, L1 cells were infected with pBABEpuro or pBABEpuro-C/EBPβ (S. R. Farmer, Boston University, Boston, Mass.), followed by selection with 1 μg/ml of puromycin (Sigma). The stable cells were grown to confluence and induced to differentiate as described above. For transient infection with pBABEpuro, pBABEpuor-PPARγ2 (B. M. Spiegelman, Harvard University, Boston, Mass.), pLXSN/HA-DEC1, pLXSN-DEC1 and pLXSN-N1, L1 cells were spin-infected and induced to differentiate as described above.

PPARγ2 promoter = PPARγ2 promoter luciferase reporter assay in NIH-3T3 cells; settings: for repression of PPARγ2 promoter activity by DEC1 fragments: 0.6-kb PPARγ2 promoter luciferase, co-transfected DEC1 fragments, 0.3 μg DNA each (FIG. 6A)
Protocol: The luciferase reporter construct pX2) under the control of the −603 to +62 PPARγ2 proximal promoter fragment (PPAR) or other deletional subclones was used as described (Tong et al., 2000). NIH-3T3 cells were transiently co-transfected with 0.3 μg each of pXP2 or PPAR and pcDNA3.1His construct expressing a DEC1 fragment using LipofectAmine Plus reagents (Life Technologies). Luciferase activities in cell lysates were measured in triplicates after 40-48 hr of incubation using Monolight 2010 Luminometer (Analytical Luminescence Laboratory, Ann Arbor, Mich.). The luciferase activity is expressed in relation to protein concentrations that vary little from well to well. Alternatively, a Renilla luciferase reporter was co-transfected as a control for transfection efficiency.

[2] = agent for first 2 days of induction with IDM, CoCl2 50 μM, DFO 100 μM, stained Day 6 (FIG. 1B)
[3] = agent in treatment media throughout the course of induction (6 days)

`[Cl][Co][Cl]` [CoCl2, Cobalt Chloride] was tested, and the “adipogenesis of MEF cells” value [1] was “suppresses adipogenesis”, the “adipocyte differentiation of control-treated MEF cells” value [1] was “significantly represses differentiation” and the “adipocyte differentiation of HIF-1α deficient MEF cells” value [1] was “continue to undergo significant adipocyte differentiation”. The “PPARγ2 expression in L1 cells” value (PPARγ2) was “repressed”, the L1 cell differentiation (3T3-L1 preadipocytes; [2]) was “sufficient to prevent L1 cell differentiation” and the L1 cell differentiation (3T3-L1 preadipocytes; [3]) was “Inhibition of L1 cell differentiation”. For the same molecule, the “differentiation of C/EBPβ-expressing L1 cells” value (3T3-L1 preadipocytes) was “still able to differentiate into fat-laden adipocytes”, the “differentiation and/or fat accumulation of C/EBPβ-expressing L1 cells” value (3T3-L1 preadipocytes) was “significantly reducing differentiation and/or fat accumulation” and the “differentiation of PPARγ2-expressing L1 cells” value (3T3-L1 preadipocytes) was “majority of the PPARγ2-expressing cells differentiate into adipocytes”.

`CC(=O)N(O)CCCCCNC(=O)CCC(=O)N(O)CCCCCNC(=O)CCC(=O)N(O)CCCCCN` [DFO, deferoxamine mesylate] was tested, and the “adipogenesis of MEF cells” value [1] was “suppresses adipogenesis”, the “adipocyte differentiation of control-treated MEF cells” value [1] was “significantly represses differentiation” and the “adipocyte differentiation of HIF-1α deficient MEF cells” value [1] was “continue to undergo significant adipocyte differentiation”. The “PPARγ2 expression in L1 cells” value (PPARγ2) was “repressed”, the L1 cell differentiation (3T3-L1 preadipocytes; [2]) was “sufficient to prevent L1 cell differentiation” and the L1 cell differentiation (3T3-L1 preadipocytes; [3]) was “Inhibition of L1 cell differentiation”. The “differentiation of C/EBPβ-expressing L1 cells” value (3T3-L1 preadipocytes) was “still able to differentiate into fat-laden adipocytes”, the “differentiation and/or fat accumulation of C/EBPβ-expressing L1 cells” value (3T3-L1 preadipocytes) was “significantly reducing differentiation and/or fat accumulation” and the “differentiation of PPARγ2-expressing L1 cells” value (3T3-L1 preadipocytes) was “majority of the PPARγ2-expressing cells differentiate into adipocytes”.

In the case of `CN(CCOc1ccc(CC2SC(=O)NC2=O)cc1)c1ccccn1` (centres unmarked) [rosiglitazone], the “MEF cells that differentiate into adipocytes” value ([1]; IDM supplemented with 5 μM rosiglitazone) is reported as 15-20%.

With “DEC1: full-length DEC1 bHLH transcription repressor, expressed from pcDNA3.1-DEC1 or pLXSN-DEC1” the “repression of PPARγ2 promoter activity” value (PPARγ2 promoter; 0.6-kb PPARγ2 promoter (−603 to +62) luciferase, compared to the vector control, co-transfection (FIG. 6A)) was 70%, the “repression of FLΔBrS promoter (BrS deleted)” value (PPARγ2 promoter; 0.6-kb promoter with BsrGI-StuI fragment deleted (FIG. 6B)) was “no longer repressed” and the “PPARγ2 expression in L1 cells with ectopic expression” value (PPARγ2) was “repressed”. For the same molecule, the “adipocyte differentiation of L1 cells on retroviral overexpression” value (“adipocyte differentiation of L1 cells” below) (3T3-L1 preadipocytes) was “nearly complete inhibition of adipocyte differentiation”.

With “HA-DEC1: HA-tagged full-length DEC1 expressed from pLXSN/HA-DEC1” the “PPARγ2 expression in L1 cells with ectopic expression” value (PPARγ2) was “repressed” and the “adipocyte differentiation of L1 cells” value (3T3-L1 preadipocytes) was “nearly complete inhibition of adipocyte differentiation”.

B1: C2: C-terminal DEC1 fragment aa201-412 (protein, UniProt O14503 201-412, looked up, fragment)
chain: FKEKPSSPAKGSEGPGKNCVPVIQRTFAHSSGEQSGSDTDTDSGYGGESEKGDLRSEQPCFKSDHGRRFTMGERIGAIKQESEEPPTKKNRMQLSDDEGHFTSSDLISSPFLGPHPHQPPFCLPFYLIPPSATAYLPMLEKCWYPTSVPVLYPGLNASAAALSSFMNPDKISAPLLMPQRLPSPLPAHPSVDSSVLLQALKPIPPLNLETKD
In the case of B1, the “repression of PPARγ2 promoter activity by DEC1 fragments” value (PPARγ2 promoter) is reported as “do not inhibit PPARγ2 promoter activity”.

B2: N1: N-terminal DEC1 fragment aa1-141 containing the bHLH domain (protein, UniProt O14503 1-141, looked up, fragment)
chain: MERIPSAQPPPACLPKAPGLEHGDLPGMYPAHMYQVYKSRRGIKRSEDSKETYKLPHRLIEKKRRDRINECIAQLKDLLPEHLKLTTLGHLEKAVVLELTLKHVKALTNLIDQQQQKIIALQSGLQAGELSGRNVETGQEM
B2 was tested, and the “PPARγ2 expression in L1 cells with ectopic expression” value (PPARγ2) was “repressed” and the “adipocyte differentiation of L1 cells” value (3T3-L1 preadipocytes) was “Significant inhibition”.

B3: C1: C-terminal DEC1 fragment aa121-412 (protein, UniProt O14503 121-412, looked up, fragment)
chain: LQSGLQAGELSGRNVETGQEMFCSGFQTCAREVLQYLAKHENTRDLKSSQLVTHLHRVVSELLQGGTSRKPSDPAPKVMDFKEKPSSPAKGSEGPGKNCVPVIQRTFAHSSGEQSGSDTDTDSGYGGESEKGDLRSEQPCFKSDHGRRFTMGERIGAIKQESEEPPTKKNRMQLSDDEGHFTSSDLISSPFLGPHPHQPPFCLPFYLIPPSATAYLPMLEKCWYPTSVPVLYPGLNASAAALSSFMNPDKISAPLLMPQRLPSPLPAHPSVDSSVLLQALKPIPPLNLETKD
For B3, the “repression of PPARγ2 promoter activity by DEC1 fragments” value (PPARγ2 promoter) was “do not inhibit PPARγ2 promoter activity”.
